The results in this text go back to ChEMBL document CHEMBL1150981, “Synthesis of new maleimide derivatives of daunorubicin and biological activity of acid labile transferrin conjugates” (Bioorg Med Chem Lett, 1997).

Activity calls are given as the source filed them.

By half-life is commonly meant the time needed for the level to fall by half in the phase considered. Read a low half-life as rapid decline. One may read the IC70 as the concentration needed for an effect of 70%. The term IC90 denotes the point of the concentration-response curve where the effect stands at 90%. A high value points to a need for much substance.

A short description of data set [1]: Tested for the half life period at pH 5.0. Format: ADME.
The subject of data set [2] is MEXF989. The experiment in a line: Tested for its inhibitory activity against human melanoma cells (MEFX 989) using a clonogenic assay at 0.01-1.0 uM. Particulars: MEXF 989. It is filed as functional.
Data set [3] has as its system LXFL 529/11. The experiment in a line: Tested for its inhibitory activity against xenograft (LXFL 529/11, lung, large cell) using a clonogenic assay. Format: functional, Homo sapiens.
Data set [4] deals with MEXF989. The experiment in a line: Tested for its inhibitory activity against human melanoma cells ([…]) using a clonogenic assay at 0.01-1.0 uM; […]. It is filed as functional, cell-based.
The test system of data set [5] is LXFL 529/11. Kind of data set: Tested for its inhibitory activity against xenograft (LXFL 529/11, lung, large cell) using a clonogenic assay at 0.01-1.0 uM; No activity. Format: functional, cell-based. The conditions noted are these: Homo sapiens.

`COc1cccc2c1C(=O)c1c(O)c3c(c(O)c1C2=O)C[C@@](O)(/C(C)=N/NC(=O)c1ccc(CN2C(=O)C=CC2=O)cc1)C[C@@H]3OC1CC(N)C(O)C(C)O1` (stereo not given in full) gave a half-life in data set [1] of 30 h. The compound also showed an IC70 in the data set with MEXF989 [2] of 22 nM. Also, the IC90 in the data set with LXFL 529/11 [3] was less than 10 nM.

For the compound `COc1cccc2c1C(=O)c1c(O)c3c(c(O)c1C2=O)C[C@@](O)(C(C)=O)C[C@@H]3O[C@H]1C[C@H](N)[C@H](O)[C@H](C)O1` [DAUNORUBICIN], the IC70 with MEXF989 [2] was 260 nM. This compound also showed a concentration for an effect of 90% (IC90) in the data set with LXFL 529/11 [3] of 30 nM.

On to `COc1cccc2c1C(=O)c1c(O)c3c(c(O)c1C2=O)C[C@@](O)(C(C)=O)C[C@@H]3OC1CC(NC(=O)c2cccc(N3C(=O)C=CC3=O)c2)C(O)C(C)O1` (stereo not given in full), for which the outcome in the data set on MEXF989 [4] and in the data set on LXFL 529/11 [5] was inactive.

In the case of `COc1cccc2c1C(=O)c1c(O)c3c(c(O)c1C2=O)C[C@@](O)(/C(C)=N/NC(=O)c1cccc(N2C(=O)C=CC2=O)c1)C[C@@H]3OC1CC(N)C(O)C(C)O1` (stereo not given in full), the half-life in data set [1] is 20 h. In the data set on MEXF989 [2], this compound returned a concentration for an effect of 70% (IC70) of 390 nM. In the data set with LXFL 529/11 [3], this compound gave a 90% effect concentration (IC90) of less than 10 nM.
